Assay results published in patent US6326014A, “Use of oxamate derivatives as depigmenting agents” (L, Oreal, priority 1997, dated 2001).

Tested on: co-culture of keratinocytes and melanocytes
Assay: Depigmenting activity: inhibition of melanogenesis in co-culture of keratinocytes and melanocytes
Type: cell-based
Conditions: for IC50: keratinocyte/melanocyte co-culture, read-out: IC50 (50% inhibition of melanogenesis)
Procedure: This test corresponds to the one described in patent FR 2,734,825 filed by the Applicant, as well as in the article by R. Schmidt, P. […], Anal. Biochem., 235(2), 113-18, (1996), the entire contents of each of which are hereby incorporated by reference. […] For each test compound, the IC50 value, which corresponds to the micromolar concentration (μM) for which a 50% inhibition of melanogenesis is observed, is determined. Moreover, a class is given to each of these compounds as regards their maximum depigmenting activity: […]

Row | SMILES | Class (maximum depigmenting activity) (at 500 μM) | IC50 | Class (maximum depigmenting activity) (at 50 μM) | Class (maximum depigmenting activity) (at 10 μM)
1 | O=c1cc(CO)occ1O [Kojic acid, reference compound] | 2 (30 to 60% inhibition of melanogenesis relative to the control (same experiment without test compound)) | 500 µM |  | 
2 | CCOC(=O)C(=O)Nc1ccc(O)cc1 [Example 1, Ethyl N-(4-hydroxyphenyl)oxamate] |  | 10 µM | 3 (60 to 100% inhibition of melanogenesis relative to the control (same experiment without test compound)) | 
3 | O=C(NC[C@H](O)[C@@H](O)[C@H](O)[C@H](O)CO)C(=O)Nc1ccc(O)cc1 [Example 2, N-(4-hydroxyphenyl)-N'-(D-glucamino)oxamide] |  | 10 µM |  | 2 (30 to 60% inhibition of melanogenesis relative to the control (same experiment without test compound))
